# Experimental data taken from patent US10064885B2, “Metabolic gene, enzyme, and flux targets for cancer therapy” (Massachusetts Institute of Technology, priority 2010, dated 2018).
# Key:
# Format in all cases: cell-based, human
# [1] = tested on: A549 cells; experiment: Reductive glutamine metabolism by isotopic labeling and GC/MS in A549 cells expressing shRNAs
# Procedure: (§1) Cell Culture, Isotopic Labeling, and Hypoxia. All cell lines were cultured in Dulbecco's Modified Eagle Medium (DMEM; Mediatech) containing 10% fetal bovine serum (FBS; Invitrogen) and 100 U/ml penicillin/streptomycin (P/S; Mediatech) unless otherwise mentioned. Cell lines were obtained from ATCC unless otherwise noted. The VC3 glioma cell line was provided by Tim Lautenschlaeger (Ohio State University), MDA-MB-231 and HCT116 cell lines were provided by Ferdinando Chiaradonna (University of Milano-Bicocca), MRC5 cells were provided by Stephen Lippard (MIT), SN12C, ACHN, and 786-O cells were provided by Kevin Courtney and Lew Cantley (Harvard Medical School), and MCF10A cells were provided by Joan Brugge (Harvard Medical School), and Huh7 cells were provided by Mike Hemann (MIT). MCF10A cells were cultured in custom DMEM/F12 (Hyclone) containing 5% horse serum, 20 ng/ml EGF, 10 μg/ml insulin, 100 ng/ml cholera toxin, 0.5 mg/ml hydrocortisone, 100 U/ml penicillin/streptomycin, and labeled/unlabeled glucose and glutamine at 18 mM and 2.5 mM, respectively. PRC3, WT8, pTV, and pTR cell lines were subcloned from the 786-O cell line as previously described (42, 43). For isotopic labeling experiments, cells were cultured in 6 well plates in glucose- and glutamine-free DMEM (Sigma) containing 10% dialyzed FBS (Invitrogen), 100 U/ml P/S, naturally labeled glucose or glutamine, and the appropriate tracer, including [U-^13C5]glutamine (Isotec), [5-^13C]glutamine (C/D/N Isotopes), [1-^13C]glutamine, [U-^13C6]glucose, [1,2-^13C2]glucose (all from Cambridge Isotope Labs). Steady state labeling of organic and amino acids was accomplished by culturing subconfluent cells in tracer medium for 24 hours. […] The internal gas content was monitored using Fyrite gas analyzers (Bacharach) for CO2 and O2. […]
# (§2) Metabolite Extraction and Gas Chromatography/Mass Spectrometry (GC/MS) Analysis. […] In some ISA experiments, cells were trypsinized, counted, and pelleted prior to lipid extraction as described above. […]
# [2] = tested on: MDA-MB-231 breast carcinoma; experiment: Reductive carboxylation by [1-13C]glutamine labeling and GC/MS in MDA-MB-231 cells expressing shRNAs
# Procedure: as §1, §2
# [3] = tested on: HCT116 colon carcinoma; experiment: Reductive carboxylation by [1-13C]glutamine labeling and GC/MS in HCT116 cells expressing shRNAs
# Procedure: as §1, §2
# [4] = tested on: Hypoxia response element- (HRE-) driven reporter; experiment: Hypoxia response element (HRE)-driven reporter in HCT116 cells expressing IDH1-targeting shRNAs; details: normal culture, hypoxia, or 1 mM DMOG, 18 hours
# Procedure: Luciferase Assays. Subconfluent cells in 6 well plates were co-transfected with 1 μg of a firefly luciferase vector and 50 ng Renilla luciferase vector (pRL-TK; Promega) using Fugene 6 reagent. The ODD-Luciferase and Luciferase vectors were obtained from Addgene and based off of the pcDNA3.1 vector (49). Hypoxia responsive element-luciferase (HRE-Luc) vectors were used as described (50). Approximately 24 hours after transfection, medium was changed and cells were placed under normoxia, hypoxia, or treated with 1 mM dimethyloxalylglycine (DMOG). After 18 hours of treatment, cells were lysed and luciferase activity was determined using the Dual Luciferase Reporter Assay system (Promega) according to the manufacturer's instructions.
# [5] = tested on: A549 cells; experiment: 13C Metabolic Flux Analysis (MFA) of A549 cells expressing IDH1-targeting shRNAs, [U-13C5]glutamine tracer
# Procedure: Cell Culture, Isotopic Labeling, and Hypoxia. All cell lines were cultured in Dulbecco's Modified Eagle Medium (DMEM; Mediatech) containing 10% fetal bovine serum (FBS; Invitrogen) and 100 U/ml penicillin/streptomycin (P/S; Mediatech) unless otherwise mentioned. Cell lines were obtained from ATCC unless otherwise noted. The VC3 glioma cell line was provided by Tim Lautenschlaeger (Ohio State University), MDA-MB-231 and HCT116 cell lines were provided by Ferdinando Chiaradonna (University of Milano-Bicocca), MRC5 cells were provided by Stephen Lippard (MIT), SN12C, ACHN, and 786-O cells were provided by Kevin Courtney and Lew Cantley (Harvard Medical School), and MCF10A cells were provided by Joan Brugge (Harvard Medical School), and Huh7 cells were provided by Mike Hemann (MIT). MCF10A cells were cultured in custom DMEM/F12 (Hyclone) containing 5% horse serum, 20 ng/ml EGF, 10 μg/ml insulin, 100 ng/ml cholera toxin, 0.5 mg/ml hydrocortisone, 100 U/ml penicillin/streptomycin, and labeled/unlabeled glucose and glutamine at 18 mM and 2.5 mM, respectively. PRC3, WT8, pTV, and pTR cell lines were subcloned from the 786-O cell line as previously described (42, 43). For isotopic labeling experiments, cells were cultured in 6 well plates in glucose- and glutamine-free DMEM (Sigma) containing 10% dialyzed FBS (Invitrogen), 100 U/ml P/S, naturally labeled glucose or glutamine, and the appropriate tracer, including [U-^13C5]glutamine (Isotec), [5-^13C]glutamine (C/D/N Isotopes), [1-^13C]glutamine, [U-^13C6]glucose, [1,2-^13C2]glucose (all from Cambridge Isotope Labs). Steady state labeling of organic and amino acids was accomplished by culturing subconfluent cells in tracer medium for 24 hours. Labeling of fatty acids for Isotopomer Spectral Analysis (USA) was conducted over 3-5 days of culture in an excess of tracer medium (3-4 ml/well in a 6 well plate) to prevent nutrient depletion. Hypoxic culture was conducted by feeding a custom mixture of 1% O2, 5% CO2, and 94% N2 to a standard incubator controlled at 5% CO2. HEPES (Mediatech) was added to the culture medium at 20 mM to maintain pH between normoxic and hypoxic cultures. The internal gas content was monitored using Fyrite gas analyzers (Bacharach) for CO2 and O2. O2 levels were confirmed at 1.5-2% during hypoxic culture.
# Stable cell cultures with decreased IDH1 and IDH2 expression were generated via lentiviral-mediated shRNA expression. pLKO.1 lentiviral vectors targeting IDH1 with shRNA sequences of […] TT (IDH1a; TRCN0000027298; SEQ ID NO:1) and […] TT (IDH1b; TRCN0000027289; SEQ ID NO:2), IDH2 with shRNA sequence […] TT (TRCN0000027225; SEQ ID NO:3). For controls, either non-targeting control shRNA (SHC002; Sigma) or pLKO.1 scrambled control vector (44)(Addgene) were used. pLKO.1 vector targeting ARNT with shRNA sequence […] TT (TRCN0000003819; SEQ ID NO:4) was obtained from Open Biosystems.
# HEK293T cells were co-transfected with pLKO.1 vectors and packaging plasmids to produce lentivirus. Filtered supernatants were used for infection, and cells were selected with puromycin (2 μg/ml) for at least two passages before initiating tracer and flux experiments.
# Metabolite Extraction and Gas Chromatography/Mass Spectrometry (GC/MS) Analysis. At the conclusion of culture, cells were rinsed with 1 ml ice cold PBS and quenched with 0.4 ml ice cold methanol. An equal volume of water was added, and cells were collected in tubes by scraping with a pipette. One volume of ice cold chloroform was added to each tube, and the extracts were vortexed at 4° C. for 30 minutes. Samples were centrifuged at 14,000 g for 5 minutes at room temperature. For analysis of polar metabolites, the aqueous phase was transferred to a new tube for evaporation under airflow. For ISA experiments, the non-polar fraction was collected and evaporated under airflow. In some ISA experiments, cells were trypsinized, counted, and pelleted prior to lipid extraction as described above. […]
# [6] = tested on: 143B osteosarcoma; experiment: Reductive carboxylation by [1-13C]glutamine labeling and GC/MS in 143B cells expressing shRNAs
# Procedure: as §1, with “respectively.” for “respectively. PRC3, WT8, pTV, and pTR cell lines were subcloned from the 786-O cell line as previously described (42, 43). For isotopic labeling experiments, cells were cultured in 6 well plates in glucose- and glutamine-free DMEM (Sigma) containing 10% dialyzed FBS (Invitrogen), 100 U/ml P/S, naturally labeled glucose or glutamine, and the appropriate tracer, including [U-^13C5]glutamine (Isotec), [5-^13C]glutamine (C/D/N Isotopes), [1-^13C]glutamine, [U-^13C6]glucose, [1,2-^13C2]glucose (all from Cambridge Isotope Labs). Steady state labeling of organic and amino acids was accomplished by culturing subconfluent cells in tracer medium for 24 hours.”
# as §2
# [7] = Anaplerotic reactions, exchange flux
# [8] = Anaplerotic reactions, net flux
# [9] = Pentose Phosphate Pathway, exchange flux
# [10] = Pentose Phosphate Pathway, net flux
sequence,measurement,setting,value
"CCGGGTGGACATCCAGCTAAAGTATCTCGAGATACTTTAGCTGGATGTCCACTTT TT (CCGGGTGGACATCCAGCTAAAGTATCTCGAGATACTTTAGCTGGATGTCCACTTTTT; expressed or natural sequence) [IDH2 shRNA, pLKO.1 lentiviral vector shRNA targeting IDH2]",reductive carboxylation (M1 label from [1-13C]glutamine),[1]; [1-13C]glutamine,does not affect reductive carboxylation flux
same,reductive carboxylation flux (M1 label from [1-13C]glutamine),[2],does not affect reductive carboxylation flux
same,reductive carboxylation flux (M1 label from [1-13C]glutamine),[3],does not affect reductive carboxylation flux
"CCGGGCTGCTTGCATTAAAGGTTTACTCGAGTAAACCTTTAATGCAAGCAGCTTT TT (CCGGGCTGCTTGCATTAAAGGTTTACTCGAGTAAACCTTTAATGCAAGCAGCTTTTT; expressed or natural sequence) [IDH1a, pLKO.1 lentiviral vector shRNA targeting IDH1]",HRE-driven reporter levels (hypoxia signaling),[4],does not increase hypoxia signaling and stabilization
same,Flux Pyr.m <−> Ala,"[5]; Amino acids, exchange flux",0.00 fmol/cell*hr
same,Flux Gln −> Glu,"[5]; Amino acids, net flux",22.97 fmol/cell*hr
same,Flux Gln.x −> Gln,"[5]; Amino acids, net flux",23.47 fmol/cell*hr
same,Flux Glu −> Glu.x,"[5]; Amino acids, net flux",18.56 fmol/cell*hr
same,Flux Pyr.m −> Ala,"[5]; Amino acids, net flux",0.42 fmol/cell*hr
same,Flux Glu <−> Akg,[5]; [7],499.30 fmol/cell*hr
same,Flux Mal <−> Pyr.m + CO2,[5]; [7],0.00 fmol/cell*hr
same,Flux Oac <−> Asp,[5]; [7],0.01 fmol/cell*hr
same,Flux Glu −> Akg,[5]; [8],3.90 fmol/cell*hr
same,Flux Mal −> Pyr.m + CO2,[5]; [8],5.44 fmol/cell*hr
same,Flux Oac −> Asp,[5]; [8],0.61 fmol/cell*hr
same,Flux Pyr.m + CO2 −> Oac,[5]; [8],2.14 fmol/cell*hr
same,Flux 0.6*Asp + 0.5*Glu + 0.42*Ala + 0.5*Gln −> Biomass,"[5]; Biomass, net flux",1.01 fmol/cell*hr
same,Flux AcCoA.c −> Fatty acids,"[5]; Biomass, net flux",10.65 fmol/cell*hr
same,Flux Cit −> AcCoA.c + Oac,"[5]; Biomass, net flux",10.65 fmol/cell*hr
same,Flux P5P −> NTP,"[5]; Biomass, net flux",0.50 fmol/cell*hr
same,Flux 0*Pyr.c −> Pyr.mnt,[5]; Dilution/Mixing,1.00 fmol/cell*hr
same,Flux 0*Pyr.m −> Pyr.mnt,[5]; Dilution/Mixing,0.00 fmol/cell*hr
same,Flux 0*Suc −> Suc.mnt,[5]; Dilution/Mixing,0.24 fmol/cell*hr
same,Flux Suc.d −> Suc.mnt,[5]; Dilution/Mixing,0.76 fmol/cell*hr
same,Flux Pyr.c <−> Pyr.m,"[5]; Dilution/Mixing, exchange flux",82.77 fmol/cell*hr
same,Flux Pyr.c −> Pyr.m,"[5]; Dilution/Mixing, net flux",11.79 fmol/cell*hr
same,Flux DHAP <−> GAP,"[5]; Glycolysis, exchange flux",566.90 fmol/cell*hr
same,Flux G6P <−> F6P,"[5]; Glycolysis, exchange flux",3.2E+04 fmol/cell*hr
same,Flux GAP <−> 3PG,"[5]; Glycolysis, exchange flux",1.7E+08 fmol/cell*hr
same,Flux Pyr.c <−> Lac,"[5]; Glycolysis, exchange flux",706.50 fmol/cell*hr
same,Flux 3PG −> Pyr.c,"[5]; Glycolysis, net flux",186.40 fmol/cell*hr
same,Flux DHAP −> GAP,"[5]; Glycolysis, net flux",91.96 fmol/cell*hr
same,Flux F6P −> DHAP + GAP,"[5]; Glycolysis, net flux",91.96 fmol/cell*hr
same,Flux G6P −> F6P,"[5]; Glycolysis, net flux",86.95 fmol/cell*hr
same,Flux GAP −> 3PG,"[5]; Glycolysis, net flux",186.40 fmol/cell*hr
same,Flux Glc.x −> G6P,"[5]; Glycolysis, net flux",94.96 fmol/cell*hr
same,Flux Lac −> Lac.x,"[5]; Glycolysis, net flux",174.60 fmol/cell*hr
same,Flux Pyr.c −> Lac,"[5]; Glycolysis, net flux",174.60 fmol/cell*hr
same,Flux P5P + E4P <−> F6P + GAP,[5]; [9],1.76 fmol/cell*hr
same,Flux P5P + P5P <−> S7P + GAP,[5]; [9],3.0E+04 fmol/cell*hr
same,Flux S7P + GAP <−> F6P + E4P,[5]; [9],1.9E+05 fmol/cell*hr
same,Flux G6P −> P5P + CO2,[5]; [10],8.01 fmol/cell*hr
same,Flux P5P + E4P −> F6P + GAP,[5]; [10],2.50 fmol/cell*hr
same,Flux P5P + P5P −> S7P + GAP,[5]; [10],2.50 fmol/cell*hr
same,Flux S7P + GAP −> F6P + E4P,[5]; [10],2.50 fmol/cell*hr
same,Flux Fum <−> Mal,"[5]; TCA Cycle, exchange flux",1.1E+06 fmol/cell*hr
same,Flux Mal <−> Oac,"[5]; TCA Cycle, exchange flux",98.66 fmol/cell*hr
same,Flux Suc <−> Fum,"[5]; TCA Cycle, exchange flux",0.00 fmol/cell*hr
same,Flux Cit <−> Akg + CO2,"[5]; TCA Cycle, exchange flux (reductive IDH flux)",1.88 fmol/cell*hr
same,Flux AcCoA.m + Oac −> Cit,"[5]; TCA Cycle, net flux",14.66 fmol/cell*hr
same,Flux Akg −> Suc + CO2,"[5]; TCA Cycle, net flux",7.91 fmol/cell*hr
same,Flux Fum −> Mal,"[5]; TCA Cycle, net flux",7.91 fmol/cell*hr
same,Flux Mal −> Oac,"[5]; TCA Cycle, net flux",2.48 fmol/cell*hr
same,Flux Pyr.m −> AcCoA.m + CO2,"[5]; TCA Cycle, net flux",14.66 fmol/cell*hr
same,Flux Suc −> Fum,"[5]; TCA Cycle, net flux",7.91 fmol/cell*hr
same,Flux Cit −> Akg + CO2,"[5]; TCA Cycle, net flux (IDH)",4.01 fmol/cell*hr
same,M3 mass isotopomers derived from [U-13C5]glutamine (reductive carboxylation),"[1]; [U-13C5]glutamine, aspartate, malate, fumarate",decrease in reductive carboxylation
same,reductive carboxylation flux (M1 label from [1-13C]glutamine),[2],reduces reductive carboxylation flux
same,reductive carboxylation flux,[6],reduces reductive carboxylation flux
same,reductive carboxylation flux (M1 label from [1-13C]glutamine),[3],reduces reductive carboxylation flux
